Assay results from US20150065499A1, “3-AMINOTHIENO[3,2-c]QUINOLINE DERIVATIVES, METHODS OF PREPARATION AND USES” (TEMPLE UNIVERSITY - OF THE COMMONWEALTH SYSTEM OF HIGHER …, priority 2012, published 2015).
Counter-ions that a name gives are not always drawn.

Columns and labels:
[1] = tested on: K562 (chronic myelogenous leukemia; leukemia cell line +ve for Bcr-Abl); assay: Cancer cell assay, K562 tumor cells, viable cells after 96 hours; type: cell-based; conditions: 96 hours after treatment, called IC50
Procedure: (§1) The effect of the compounds of the invention on tumor cells was determined by the assay described by Latham et al., Oncogene 12:827-837 (1996). Tumor cells K562 (chronic myelogenous leukemia; leukemia cell line +ve for Bcr-Abl) or DU145 (prostate cancer) were plated in 12-well dishes at a cell density of 2.5×10^4 cells well. The plated cells were treated 24 hours later with a compound of the invention dissolved in DMSO at multiple concentrations ranging from 0.01 μM to 100 μM. The plates were examined 96 hours later under an inverted microscope, Olympus CK-2 using a 10× objective, and compound activity was noted by physical observation. When necessary, the total number of viable cells was determined by trypsinizing the wells and counting the number of viable cells, as determined by trypan blue exclusion, using a hemacytometer.

DU145 (prostate cancer) = assay: Cancer cell assay, DU145 tumor cells, viable cells after 96 hours; type: cell-based; conditions: Homo sapiens, DU-145, 96 hours after treatment, called IC50
Procedure: as §1

| Compound | melting point | IC50 ([1]; Homo sapiens) | IC50 (DU145 (prostate cancer)) | IC50 [1] |
| --- | --- | --- | --- | --- |
| COC(=O)c1sc2c(c[n+](C)c3cc(OC)c(OC)cc23)c1N (as salt: iodide) [Example 30, 3-amino-7,8-dimethoxy-2-(methoxycarbonyl)-5-methylthieno[3,2-c]quinolin-5-ium iodide] | 249 to 251 °C |  |  |  |
| COc1cc2ncc3c(N)c(C(=O)c4ccc(F)cc4)sc3c2cc1OC [Example 3, (3-Amino-7,8-dimethoxythieno[3,2-c]quinolin-2-yl)(4-fluorophenyl)methanone] | 286 to 288 °C | > 10 µM | > 10 µM |  |
| COC(=O)c1sc2c(cnc3cc(OCc4ccccc4)c(OC)cc32)c1N [Example 4, Methyl 3-amino-7-benzyloxy-8-methoxythieno[3,2-c]quinolone-2-carboxylate] | 221 to 223 °C | > 10 µM | > 10 µM |  |
| COC(=O)c1sc2c(cnc3cc(OC)c(OCc4ccccc4)cc32)c1N [Example 7, Methyl 3-amino-8-benzyloxy-7-methoxythieno[3,2-c]quinoline-2-carboxylate] | 272 to 274 °C | > 10 µM | > 10 µM |  |
| COC(=O)c1sc2c(cnc3cc(OC)c(O)cc32)c1N [Example 10, Methyl 3-amino-8-hydroxy-7-methoxythieno[3,2-c]quinoline-2-carboxylate] | 277 to 280 °C | > 100 µM | > 100 µM |  |
| COC(=O)c1sc2c(cnc3cc(OC(=O)N4CCN(C)CC4)c(OC)cc32)c1N [Example 13, Methyl 3-amino-8-methoxy-7-[(4-methylpiperazine-1-carbonyl)oxy]thieno[3,2-c]quinoline-2-carboxylate] | 147 to 150 °C | 10 to 25 µM | 10 to 25 µM |  |
| COC(=O)c1sc2c(cnc3cc(OCCN4CCOCC4)c(OC)cc32)c1N [Example 14, Methyl 3-amino-8-methoxy-7-(2-morpholinoethoxy)thieno[3,2-c]quinoline-2-carboxylate] | 158 to 160 °C | 10 to 25 µM | 10 to 25 µM |  |
| COC(=O)c1sc2c(cnc3cc(OC)c(OCCCN4CCOCC4)cc32)c1N [Example 15, Methyl 3-amino-7-methoxy-8-(3-morpholinopropoxy)thieno[3,2-c]quinoline-2-carboxylate] | 188 to 190 °C | 10 to 25 µM | 10 to 25 µM |  |
| COC(=O)c1sc2c(cnc3cc(OC)c(OC)cc32)c1NC(=O)C(=O)N1CCOCC1 [Example 26, Methyl 7,8-dimethoxy-3-(2-morpholino-2-oxoacetamido)thieno[3,2-c]quinoline-2-carboxylate] | 232 to 234 °C | 50 to 100 µM | 25 to 50 µM |  |
| COC(=O)C[n+]1cc2c(N)c(C(=O)OC)sc2c2cc(OC)c(OC)cc21 [Example 31, 3-amino-7,8-dimethoxy-5-(2-methoxy-2-oxoethyl)-2-(methoxycarbonyl)thieno[3,2-c]quinolin-5-ium bromide] |  | 50 to 100 µM | > 100 µM |  |
| COC(=O)c1sc2c(cnc3cc(OC)c(OC)cc32)c1/N=C/N(C)C [Example 32, (E)-methyl 3-(((dimethylamino)methylene)amino)-7,8-dimethoxythieno[3,2-c]quinoline-2-carboxylate] | 173 to 175 °C | 10 to 25 µM | 10 to 25 µM |  |
| COc1cc2ncc3c(N)c(-c4nnn[nH]4)sc3c2cc1OC [Example 33, 7,8-dimethoxy-2-(1H-tetrazol-5-yl)thieno[3,2-e]quinolin-3-amine] | 252 to 255 °C | 25 to 50 µM | 50 to 100 µM |  |
| COC(=O)c1sc2c(cnc3ccc(F)cc32)c1N [Example 34, Methyl 3-amino-8-fluorothieno[3,2-c]quinoline-2-carboxylate] | 270 to 272 °C | 10 µM | 10 µM |  |
| Methyl 7,8-dimethoxy-3-(2-aminobenzamido)thieno[3,2-e]quinoline-2-carboxylate [Example 21] |  |  |  | < 1 µM |

Second part, the compound after the results:

| melting point | IC50 ([1]; Homo sapiens) | IC50 (DU145 (prostate cancer)) | IC50 [1] | Compound |
| --- | --- | --- | --- | --- |
| 260 to 262 °C | 0.15 µM | 0.6 µM |  | COC(=O)c1sc2c(cnc3cc(OC)c(OC)cc32)c1N [Example 1, Methyl 3-amino-7,8-dimethoxythieno[3,2-c]quinolone-2-carboxylate] |
| 215 to 218 °C | 0.5 to 1 µM | > 1 µM |  | CCOC(=O)c1sc2c(cnc3cc(OC)c(OC)cc32)c1N [Example 2, Ethyl 3-amino-7,8-dimethoxythieno[3,2-c]quinolone-2-carboxylate] |
| 230 to 234 °C | 1 to 10 µM | > 10 µM |  | COc1cc2ncc3c(N)c(C(=O)C(F)(F)F)sc3c2cc1OC [Example 5, 1-(3-Amino-7,8-dimethoxythieno[3,2-c]quinolin-2-yl)-2,2,2-trifluoroethanone] |
| 260 to 263 °C | 0.5 to 1 µM | 1 to 10 µM |  | COc1cc2ncc3c(N)c(C(C)=O)sc3c2cc1OC [Example 6, 1-(3-Amino-7,8-dimethoxythieno[3,2-c]quinolin-2-yl)ethanone] |
| 314 to 316 °C | 1 to 10 µM | 10 to 25 µM |  | COc1cc2ncc3c(N)c(C#N)sc3c2cc1OC [Example 8, 3-Amino-7,8-dimethoxythieno[3,2-c]quinoline-2-carbonitrile] |
| 244 to 246 °C | 1 to 10 µM | > 10 µM |  | COC(=O)c1sc2c(cnc3cc(O)c(OC)cc32)c1N [Example 9, Methyl 3-amino-7-hydroxy-8-methoxythieno[3,2-c]quinoline-2-carboxylate] |
| 117 to 120 °C | 1 to 10 µM | 1 to 10 µM |  | COC(=O)c1sc2c(cnc3cc(OCCCN4CCOCC4)c(OC)cc32)c1N [Example 11, Methyl 3-amino-8-methoxy-7-(3-morpholinopropoxy)thieno[3,2-c]quinoline-2-carboxylate] |
| 127 to 130 °C | 1 to 5 µM | 1 to 5 µM |  | COC(=O)c1sc2c(cnc3cc(OCCCN4CCCCC4)c(OC)cc32)c1N [Example 12, Methyl 3-amino-8-methoxy-7-[3-(piperidin-1-yl)propoxy]thieno[3,2-c]quinoline-2-carboxylate] |
| 255 to 258 °C | < 1 µM | < 1 µM |  | COC(=O)c1sc2c(cnc3cc(OC)c(OC)cc32)c1NC(=O)c1ccc(OC)cc1 [Example 16, Methyl 7,8-dimethoxy-3-(4-methoxybenzamido)thieno[3,2-c]quinoline-2-carboxylate] |
| 237 to 240 °C | 0.1 to 0.25 µM | 0.5 to 1 µM |  | COC(=O)c1sc2c(cnc3cc(OC)c(OC)cc32)c1NC(=O)c1ccccc1F [Example 17, Methyl 3-(2-fluorobenzamido)-7,8-dimethoxythieno[3,2-c]quinoline-2-carboxylate] |
| 205 to 208 °C | 0.1 to 0.25 µM | 0.25 to 0.5 µM |  | COC(=O)c1sc2c(cnc3cc(OC)c(OC)cc32)c1NC(=O)c1ccccc1 [Example 19, Methyl 3-benzamido-7,8-dimethoxythieno[3,2-c]quinoline-2-carboxylate] |
| 178 to 181 °C | 3 µM | 25 µM |  | COC(=O)c1sc2c(cnc3cc(OC)c(OC)cc32)c1NC(=O)c1ccccc1[N+](=O)[O-] [Example 20, Methyl 7,8-dimethoxy-3-(2-nitrobenzamido)thieno[3,2-c]quinoline-2-carboxylate] |
| 260 to 262 °C | 0.1 to 0.5 µM | 0.5 to 1 µM |  | COC(=O)c1sc2c(cnc3cc(OC)c(OC)cc32)c1NC(=O)c1ccc(Cl)c([N+](=O)[O-])c1 [Example 22, Methyl 3-(4-chloro-3-nitrobenzamido)-7,8-dimethoxythieno[3,2-c]quinoline-2-carboxylate] |
| 224 to 230 °C | 0.2 µM | 0.75 µM |  | COC(=O)c1sc2c(cnc3cc(OC)c(OC)cc32)c1NC(=O)C(F)(F)F [Example 23, Methyl 7,8-dimethoxy-3-(2,2,2-trifluoroacetamido)thieno[3,2-c]quinoline-2-carboxylate] |
|  | 1 to 10 µM | 1 to 10 µM |  | COC(=O)c1sc2c(cnc3cc(OC)c(OC)cc32)c1NC(=O)C(=O)N1CCN(C)CC1 [Example 25, Methyl 7,8-dimethoxy-3-[2-(4-methylpiperazin-1-yl)-2-oxoacetamido]thieno[3,2-c]quinoline-2-carboxylate] |
| 245 to 248 °C | 1 to 10 µM | 1 to 10 µM |  | COC(=O)c1sc2c(cnc3cc(OC)c(OC)cc32)c1NC(=O)C(=O)N1CCN(c2ccncc2)CC1 [Example 27, Methyl 7,8-dimethoxy-3-{2-oxo-2-[4-(pyridin-4-yl)piperazin-1-yl]acetamido}thieno[3,2-c]quinoline-2-carboxylate] |
| 240 to 246 °C | 1 to 10 µM | 10 to 25 µM |  | COC(=O)c1sc2c(cnc3cc(OC)c(OC)cc32)c1NC(=O)C(=O)Nc1ccc(N2CCN(C)CC2)cc1 [Example 28, Methyl 7,8-dimethoxy-3-(2-{[4-(4-methylpiperazin-1-yl)phenyl]amino}-2-oxoacetamido)thieno[3,2-c]quinoline-2-carboxylate] |
|  | 5 to 10 µM | > 10 µM |  | COC(=O)c1sc2c(c[n+](C)c3cc(OC)c(OC)cc23)c1N [Example 30, 3-amino-7,8-dimethoxy-2-(methoxycarbonyl)-5-methylthieno[3,2-c]quinolin-5-ium iodide] |
